Results reported in US8466193B2, “Selective inhibitors of histone deacetylase” (Pharmacyclics, Inc., priority 2008, dated 2013).

Key:
HDAC1 = HDAC1 (Homo sapiens, UniProt Q13547); test: Histone deacetylase activity, continuous trypsin-coupled assay; format: biochemical; conditions: 15 minutes preincubation; substrate acetyl-Gly-Ala-(N-acetyl-Lys)-AMC
Protocol: (§1) HDAC activity was measured using a continuous trypsin-coupled assay that has been described in detail previously (US 20070281934; Schultz et. al., Biochemistry, 43 (34), 11083-11091, 2004; Kim et al. (2006), Methods Mol. Biol., 325:273-283). For inhibitor characterization, measurements were performed in a reaction volume of 100 μL using 96-well assay plates in a fluorescence plate reader. For each isozyme, the HDAC protein in reaction buffer (50 mM HEPES, 100 mM KCl, 0.001% Tween-20, 5% DMSO, pH 7.4, supplemented with bovine serum albumin at concentrations of 0-0.05%, was mixed with inhibitor at various concentrations and allowed to incubate for 15 minutes. Trypsin was added to a final concentration of 50 nM, and acetyl-Gly-Ala-(N-acetyl-Lys)-AMC was added to a final concentration of 25-100 μM to initiate the reaction. After a 30 minute lag time, the fluorescence was measured over a 30 minute time frame using an excitation wavelength of 355 nm and a detection wavelength of 460 nm. The increase in fluorescence with time was used as the measure of the reaction rate. Inhibition constants Ki(app) were obtained using the program BatchKi (Biokin, Pullman, Wash.).

HDAC6 = target: T1, HDAC6 (Homo sapiens, UniProt Q9UBN7); test: as above; format: biochemical; conditions: 15 minutes preincubation; substrate acetyl-Gly-Ala-(N-acetyl-Lys)-AMC
T1 sequence (Q9UBN7 1-1215): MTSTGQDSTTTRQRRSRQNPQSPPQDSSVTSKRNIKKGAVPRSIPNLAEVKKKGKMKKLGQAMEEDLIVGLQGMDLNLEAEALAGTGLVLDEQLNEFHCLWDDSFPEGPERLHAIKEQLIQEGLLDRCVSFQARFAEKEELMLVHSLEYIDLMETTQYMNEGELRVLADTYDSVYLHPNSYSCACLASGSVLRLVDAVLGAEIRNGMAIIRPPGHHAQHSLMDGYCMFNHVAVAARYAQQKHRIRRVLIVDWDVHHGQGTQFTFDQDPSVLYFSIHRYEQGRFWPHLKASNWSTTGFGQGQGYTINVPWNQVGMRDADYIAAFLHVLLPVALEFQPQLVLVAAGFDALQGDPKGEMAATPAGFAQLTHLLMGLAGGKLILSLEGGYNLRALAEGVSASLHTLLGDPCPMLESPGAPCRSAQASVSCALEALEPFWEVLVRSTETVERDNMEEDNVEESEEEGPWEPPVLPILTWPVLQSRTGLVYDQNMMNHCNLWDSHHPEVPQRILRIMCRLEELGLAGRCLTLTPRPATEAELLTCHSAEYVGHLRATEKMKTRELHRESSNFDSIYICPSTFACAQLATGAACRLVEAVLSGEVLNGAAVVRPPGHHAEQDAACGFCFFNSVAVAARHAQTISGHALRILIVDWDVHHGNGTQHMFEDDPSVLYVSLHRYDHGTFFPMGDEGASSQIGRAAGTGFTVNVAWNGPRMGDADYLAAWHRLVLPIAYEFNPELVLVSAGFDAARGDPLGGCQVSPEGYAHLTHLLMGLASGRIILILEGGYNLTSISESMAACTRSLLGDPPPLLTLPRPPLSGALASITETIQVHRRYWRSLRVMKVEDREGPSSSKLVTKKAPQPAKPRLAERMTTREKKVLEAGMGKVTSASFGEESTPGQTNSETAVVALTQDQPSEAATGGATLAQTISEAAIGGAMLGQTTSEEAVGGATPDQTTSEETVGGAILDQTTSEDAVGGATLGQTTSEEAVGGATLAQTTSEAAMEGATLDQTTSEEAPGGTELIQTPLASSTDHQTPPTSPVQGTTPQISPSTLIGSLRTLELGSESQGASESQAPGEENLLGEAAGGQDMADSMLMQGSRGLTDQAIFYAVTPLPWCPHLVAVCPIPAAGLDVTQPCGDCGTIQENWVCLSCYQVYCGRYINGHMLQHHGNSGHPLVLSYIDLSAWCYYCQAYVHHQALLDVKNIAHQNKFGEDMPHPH
Protocol: as §1

HDAC8 = target: T2, HDAC8 (Homo sapiens, UniProt Q9BY41); test: as above; format: biochemical; conditions: 15 minutes preincubation; substrate acetyl-Gly-Ala-(N-acetyl-Lys)-AMC
T2 sequence (Q9BY41 1-377): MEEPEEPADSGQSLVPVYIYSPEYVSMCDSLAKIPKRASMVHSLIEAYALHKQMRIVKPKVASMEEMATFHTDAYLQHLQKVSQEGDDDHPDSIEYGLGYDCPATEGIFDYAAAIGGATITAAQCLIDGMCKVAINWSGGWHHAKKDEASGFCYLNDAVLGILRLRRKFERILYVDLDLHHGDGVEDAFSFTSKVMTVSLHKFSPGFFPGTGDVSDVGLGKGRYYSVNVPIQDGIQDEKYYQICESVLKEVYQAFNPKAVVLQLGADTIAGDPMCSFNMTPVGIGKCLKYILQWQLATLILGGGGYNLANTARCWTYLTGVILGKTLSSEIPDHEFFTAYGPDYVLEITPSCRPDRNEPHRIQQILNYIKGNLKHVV
Protocol: as §1

Jurkat cells = test: Cell proliferation assay, growth inhibition by Alamar Blue; format: cell-based; conditions: Jurkat cells treated with compound for 3 days
Protocol: Cell lines were obtained from DSMZ (Braunschweig, Germany) or ATCC (Manassas, Va.). Cells were grown in RPMI 1640 with 10% fetal bovine serum in a 5% CO2/air incubator at 37° C. Thapsigargin and BAPTA-AM were from Calbiochem (San Diego, Calif.). 3-((dimethylamino)methyl)-N-(2-(4-(hydroxycarbamoyl)phenoxy)ethyl)benzofuran-2-carboxamide is a broad-spectrum HDAC inhibitor which was synthesized as previously described. Other analogs with varying degrees of specificity towards the HDAC isoforms were synthesized as described herein.
Tumor cell lines and human umbilical vein endothelial cells (HUVEC) were cultured for at least two doubling times, and growth was monitored at the end of compound exposure using an Alamar Blue™ (Biosource, Camarillo, Calif.) fluorometric cell proliferation assay as recommended by the manufacturer. Compounds were assayed in triplicate wells in 96-well plates. The concentration required to inhibit cell growth by 50% (GI50) and 95% confidence intervals were estimated from nonlinear regression using a 4-parameter logistic equation. The effect of HDAC8 selective inhibitor compounds on cell proliferation in Jurkat cells was measured. Apoptosis was measured by Annexin-V flow cytommetry. Growth inhibition was measured by Alamar Blue assay. Cells were treated with compound for 3 days.

HDAC2 = HDAC2 (Homo sapiens, UniProt Q92769); test: Histone deacetylase activity, continuous trypsin-coupled assay; format: biochemical; conditions: 15 minutes preincubation; substrate acetyl-Gly-Ala-(N-acetyl-Lys)-AMC
Protocol: as §1

HDAC10 = target: T3, HDAC10 (Homo sapiens, UniProt Q969S8); test: as above; format: biochemical; conditions: 15 minutes preincubation; substrate acetyl-Gly-Ala-(N-acetyl-Lys)-AMC
T3 sequence (Q969S8 1-669): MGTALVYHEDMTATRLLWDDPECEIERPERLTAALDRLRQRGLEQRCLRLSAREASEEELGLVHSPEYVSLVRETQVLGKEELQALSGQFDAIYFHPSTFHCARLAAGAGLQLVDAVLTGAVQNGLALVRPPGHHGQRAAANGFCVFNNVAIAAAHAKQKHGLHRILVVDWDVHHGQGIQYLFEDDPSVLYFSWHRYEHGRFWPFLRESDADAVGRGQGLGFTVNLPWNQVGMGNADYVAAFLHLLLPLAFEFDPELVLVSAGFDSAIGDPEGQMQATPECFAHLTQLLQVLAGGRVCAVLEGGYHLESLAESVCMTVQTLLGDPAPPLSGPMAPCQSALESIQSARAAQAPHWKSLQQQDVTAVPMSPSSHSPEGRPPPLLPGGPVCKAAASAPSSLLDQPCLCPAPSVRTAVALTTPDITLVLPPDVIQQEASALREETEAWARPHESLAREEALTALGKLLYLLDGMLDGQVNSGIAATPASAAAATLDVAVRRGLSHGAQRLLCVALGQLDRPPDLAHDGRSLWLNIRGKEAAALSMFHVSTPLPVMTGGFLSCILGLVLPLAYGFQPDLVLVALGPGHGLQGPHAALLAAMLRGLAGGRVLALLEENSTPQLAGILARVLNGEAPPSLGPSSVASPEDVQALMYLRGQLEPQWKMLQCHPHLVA
Protocol: as §1

Sequence of HDAC2 (Q92769 whole entry, species assumed): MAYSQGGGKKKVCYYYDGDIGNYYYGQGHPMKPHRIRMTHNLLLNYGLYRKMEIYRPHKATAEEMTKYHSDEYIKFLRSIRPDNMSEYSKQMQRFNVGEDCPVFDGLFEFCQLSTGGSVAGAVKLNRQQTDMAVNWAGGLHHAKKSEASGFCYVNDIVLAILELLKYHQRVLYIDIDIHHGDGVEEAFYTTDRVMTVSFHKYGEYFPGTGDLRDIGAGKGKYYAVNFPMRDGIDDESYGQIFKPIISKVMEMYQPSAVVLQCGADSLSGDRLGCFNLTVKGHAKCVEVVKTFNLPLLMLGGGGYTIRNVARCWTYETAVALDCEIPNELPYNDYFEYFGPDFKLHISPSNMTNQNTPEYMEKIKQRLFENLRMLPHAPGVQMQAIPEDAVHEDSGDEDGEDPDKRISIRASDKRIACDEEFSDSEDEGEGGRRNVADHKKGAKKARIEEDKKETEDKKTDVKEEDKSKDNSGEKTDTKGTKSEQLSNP
Sequence of HDAC1 (Q13547 whole entry, species assumed): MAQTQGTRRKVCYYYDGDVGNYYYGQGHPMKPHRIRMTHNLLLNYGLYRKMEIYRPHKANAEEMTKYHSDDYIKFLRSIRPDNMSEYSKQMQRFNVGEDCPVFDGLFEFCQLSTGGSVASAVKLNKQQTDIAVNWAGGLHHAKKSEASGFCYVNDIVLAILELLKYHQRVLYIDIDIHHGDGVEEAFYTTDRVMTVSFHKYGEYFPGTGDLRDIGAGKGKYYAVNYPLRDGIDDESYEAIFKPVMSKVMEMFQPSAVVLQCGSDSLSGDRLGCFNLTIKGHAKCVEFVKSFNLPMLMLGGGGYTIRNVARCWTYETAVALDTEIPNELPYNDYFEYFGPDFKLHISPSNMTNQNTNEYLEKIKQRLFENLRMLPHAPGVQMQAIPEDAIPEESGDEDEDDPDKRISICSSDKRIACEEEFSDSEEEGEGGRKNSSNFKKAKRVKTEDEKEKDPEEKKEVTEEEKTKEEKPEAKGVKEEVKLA

SMILES | IC50 (HDAC1) [µM] | IC50 (HDAC6) [µM] | IC50 (HDAC8) [µM] | GI50 (Jurkat cells; Homo sapiens, 72 h) [µM] | IC50 (HDAC2) [µM] | IC50 (HDAC10) [µM] | GI50 (Jurkat cells) [µM]
O=C(NO)c1ccc2ncn(Cc3ccccc3)c2c1 [Compound 1, 3-benzyl-N-hydroxy-3H-benzo[d]imidazole-5-carboxamide] | > 10 | 1 to 10 | < 1 | – | – | – | –
COc1ccc(Cn2cccc2/C=C/C(=O)NO)cc1 [Compound 203, (E)-3-(1-(4-methoxybenzyl)-1H-pyrrol-2-yl)-N-hydroxyacrylamide] | > 10 | 1 to 10 | < 1 | – | – | – | –
O=C(/C=C/c1cccn1CCOc1ccccc1)NO [Compound 232, (E)-N-hydroxy-3-(2-phenoxyethyl-1H-pyrrol-2-yl)acrylamide] | > 10 | 1 to 10 | < 1 | – | – | – | 4.98
O=C(/C=C/c1cccn1CCOc1cccc(F)c1)NO [Compound 234, (E)-3-(1-(2-(3-fluorophenoxy)ethyl)-1H-pyrrol-2-yl)-N-hydroxyacrylamide] | 1 to 10 | 1 to 10 | < 1 | 4.3 | – | – | –
O=C(NO)c1ccc2ccn(CCc3ccccc3)c2c1 [Compound 302, N-hydroxy-1-(2-phenyl-ethyl)-1H-indole-6-carboxamide] | – | – | – | 25.2 | – | – | –
COc1ccc(Cn2ccc3ccc(C(=O)NO)cc32)cc1 [Compound 306, N-hydroxy-1-(4-methoxybenzyl)-1H-indole-6-carboxamide] | – | – | – | 3.6 | – | – | –
COc1ccc(Cn2cc(CN(C)C)c3ccc(C(=O)NO)cc32)cc1 [Compound 307, N-hydroxy-1-(4-methoxybenzyl)-3-(dimethylaminomethyl)-1H-indole-6-carboxamide] | – | – | < 1 | – | > 10 | – | –
COc1ccc(Cn2cc(CNCc3ccccc3)c3ccc(C(=O)NO)cc32)cc1 [Compound 308, 3-((benzylamino)methyl)-N-hydroxy-1-(4-methoxybenzyl)-1H-indole-6-carboxamide] | – | – | – | 5.2 | – | – | –
COc1ccc(Cn2cc(CN(C)CCc3ccccn3)c3ccc(C(=O)NO)cc32)cc1 [Compound 309, N-hydroxy-1-(4-methoxybenzyl)-3-((methyl(2-(pyridin-2-yl)ethyl)amino)methyl)-1H-indole-6-carboxamide] | – | – | < 1 | 19.2 | > 10 | – | –

Further lines, with some results ahead:

IC50 (HDAC1) [µM] | IC50 (HDAC6) [µM] | IC50 (HDAC8) [µM] | GI50 (Jurkat cells; Homo sapiens, 72 h) [µM] | IC50 (HDAC2) [µM] | IC50 (HDAC10) [µM] | SMILES | GI50 (Jurkat cells) [µM]
– | – | < 1 | 16 | > 10 | – | COc1ccc(Cn2ccc3ccc(C(=O)NO)cc32)cn1 [Compound 310, N-hydroxy-1-(2-methoxylpyridin-5-ylmethyl)-1H-indole-6-carboxamide] | –
– | – | < 1 | 5.2 | 1 to 10 | – | O=C(NO)c1ccc2ccn(Cc3cccc(NS(=O)(=O)c4ccccc4)c3)c2c1 [Compound 313, N-hydroxy-1-(3-(phenylsulfonamido)benzyl)-1H-indole-6-carboxamide] | –
– | – | < 1 | – | > 10 | – | O=C(NO)c1ccc2ccn(Cc3ccc4c(c3)OCO4)c2c1 [Compound 315, N-hydroxy-1-(benzo[d][1,3]dioxol-5-ylmethyl)-1H-indole-6-carboxamide] | –
> 10 | 1 to 10 | < 1 | – | – | – | O=C(NO)c1ccc2ccn(CCOc3ccccc3F)c2c1 [Compound 317, N-hydroxy-1-(2-(2-fluorophenoxy)ethyl)-1H-indole-6-carboxamide] | –
> 10 | 1 to 10 | < 1 | – | – | – | O=C(NO)c1ccc2ccn(CCOc3cccc(F)c3)c2c1 [Compound 318, N-hydroxy-1-(2-(3-fluorophenoxy)ethyl)-1H-indole-6-carboxamide] | –
> 10 | 1 to 10 | < 1 | – | – | – | O=C(NO)c1ccc2ccn(CCOc3ccccc3Cl)c2c1 [Compound 320, N-hydroxy-1-(2-(2-chlorophenoxy)ethyl)-1H-indole-6-carboxamide] | –
> 10 | 1 to 10 | < 1 | – | – | – | O=C(NO)c1ccc2ccn(CCOc3cccc(Cl)c3)c2c1 [Compound 321, N-hydroxy-1-(2-(3-chlorophenoxy)ethyl)-1H-indole-6-carboxamide] | –
> 10 | > 10 | < 1 | – | – | > 10 | O=C(NO)c1ccc2ccn(CCOc3ccccc3CN3CCOCC3)c2c1 [Compound 326, N-hydroxy-1-(2-(2-(morpholin-4-ylmethyl)phenoxy)ethyl)-1H-indole-6-carboxamide] | –
– | – | – | 12.5 | – | – | O=C(NO)c1ccc2ccn(CCOc3ccc(CN4CCOCC4)cc3)c2c1 [Compound 328, N-hydroxy-1-(2-(4-(morpholin-4-ylmethyl)phenoxy)ethyl)-1H-indole-6-carboxamide] | –
– | – | – | 4.7 | – | – | COc1ccc(Cn2ccc3ccc(C(=O)NO)cc32)cc1F [Compound 330, N-hydroxy-1-(3-fluoro-4-methoxybenzyl)-1H-indole-6-carboxamide] | –
